Experimental data as given in PubChem BioAssay AID2683 (Broad Institute, 2010).
pEC50: −log10 of the molar value. Several values for one entry are separate records, joined by “and”; a condition that tells them apart may be missing. Equal entries are not always repeated. Activity calls are given as the source filed them.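 Rule for the calls: active = rising-signal curve whose EC50 is at most tenfold above the top concentration tested; inconclusive = flat fit with activity between 30% and 70%, or invalid fit; inactive = the rest.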

test system: S. cerevisiae SKY197-pL101 polyadenylation reporter, beta-gal luminescence, 9 h; assay: elevated beta-gal reporter luminescence in yeast – S. cerevisiae SKY197-pL101, polyadenylation inhibitor project, dose response (AID 2683)

EC50, inactive:
N#C/C(=C\c1ccco1)c1nc2ccccc2[nH]1 > 12 µM, N#C/C(=C\c1cccc([N+](=O)[O-])c1)c1nc2ccccc2[nH]1 > 12 µM, Cc1ccc2nc(/C(C#N)=C/c3ccc(C)o3)[nH]c2c1 > 12 µM

pEC50, active:
N#C/C(=C\c1ccc([N+](=O)[O-])o1)c1nc2ccccc2[nH]1 4.96, N#C/C(=C/c1ccc([N+](=O)[O-])o1)c1nc2ccccc2[nH]1 5.08, Cc1ccc2nc(/C(C#N)=C/c3ccc([N+](=O)[O-])o3)[nH]c2c1 5.19 and 5.14, Cc1cccc2[nH]c(/C(C#N)=C/c3ccc([N+](=O)[O-])o3)nc12 5.23
